Values after ≈ are worked out from the molar mass of the structure shown. Like-named read-outs stand apart in the source and are kept apart here. Where a SMILES comes first, the peptide text is derived from it. The star is where a group is joined. Stearoyl = CCCCCCCCCCCCCCCCCC(=O)*; Palmitoyl = CCCCCCCCCCCCCCCC(=O)*
Experiments:
P. aeruginosa ATCC 9027 = assay type: cell-based, Pseudomonas aeruginosa
Protocol: (§1) The Acinetobacter baumannii ATCC BAA-1605, Enterococcus faecium ATCC 700221, Klebsiella aerogenes ATCC 13048, Klebsiella pneumoniae ATCC 700603, Pseudomonas aeruginosa ATCC 9027, Staphylococcus aureus ATCC 33591, Candida glabrata ATCC 15126 strains were acquired from the American Type Culture Collection (ATCC, Manassas, USA). All the strains were stored at −80 °C in Roti-Store cryo vials (Carl Roth GmbH, Germany) and before the tests were transferred into fresh Mueller–Hinton broth (MHB, Becton Dickinson, Poland) for bacteria or RPMI-1640 (Sigma-Aldrich, Germany) for fungi and incubated for 24 h at 37 °C. Then, the cultures were cultured on the Mueller–Hinton agar (BioMaxima, Poland) or Sabouraud dextrose agar (SDA, BioMaxima) plates, respectively, and incubated as just mentioned. For microbiological assays, a minimum of three to five well-isolated colonies of the same morphological type were carefully picked from the agar cultures. These colonies were transferred with sterile loop into fresh microbiological medium and incubated with shaking (100 rpm) at 37 °C until they reached logarithmic phase of growth. Cell densities for all assays were adjusted through spectrophotometric measurements (Multiskan GO Microplate Spectrophotometer, Thermo Fisher Scientific, Finland) at 600 and 530 nm for bacteria and fungi, respectively.
(§2) The MICs were determined by broth microdilution method according to the Clinical and Laboratory Standard Institute guidelines. For this purpose, initial inoculums of bacteria (5 × 10^5 CFU/mL) in MHB and yeasts (2 × 10^3 CFU/mL) in RPMI-1640 with 2% D-glucose were exposed to the ranging concentration of lipopeptides (1–512 μg/mL) and incubated at 37 °C for 18 h and 24 h, respectively. The experiments were conducted on 96-well microtiter polystyrene plates (Kartell, Italy). The growth was assessed visually after incubation and the MIC was assumed as the lowest peptide concentration at which a noticeable growth of microorganisms was inhibited. Benzalkonium chloride (Sigma-Aldrich, Germany) was used as reference compound. All experiments were conducted in triplicate.

[1] = system: human red blood cells (RBCs); assay type: cell-based; conditions: red cells of human
Protocol: The hemolysis assay was conducted using a procedure described previously. For this purpose, human red blood cells (RBCs) isolated from K2EDTA Single Donor Human Whole blood (Innovative Research, Inc, MI, USA) were rinsed with Phosphate-buffer saline (PBS, pH 7.4±0.05, composition - KCl 2.7 mM, NaCl 140 mM, phosphate 10mM; AppliChem GmbH, Germany) by centrifugation for 10 min at 800 × g. This process was repeated 3 times and the RBCs were resuspended in PBS. Then, the stock solution of RBCs was added to the serial dilution of lipopeptides on 96-well polystyrene plates to reach a final volume of 100 μL with a 4% concentration of erythrocytes (v/v) and a concentration range of 1-512 μg/mL of tested compounds. The control wells for 0% and 100% hemolysis consisted of RBCs suspended in PBS and 1% of Triton X-100 (Sigma-Aldrich, Germany), respectively. Benzalkonium chloride (Sigma-Aldrich, Germany) was used as reference compound. Subsequently, the plates were incubated for 60 min at 37 °C and then centrifuged at 800 × g for 10 min at 4 °C (Sorvall ST […] Centrifuge, Thermo Scientific). The supernatant was carefully […] to new microtiter plates. The release of hemoglobin was monitored absorbance measurements at 540 nm (MultiskanTM GO Microplate Spectrophotometer, Thermo Scientific). All experiments were conducted in triplicate. HC50 was calculated using an ic50.tk tool.

[2] = system: human keratinocyte cell line (HaCaT); assay type: cell-based; conditions: 24 h
Protocol: The immortalized human keratinocyte cell line (HaCaT), obtained from CLS (Cell Line Service, Germany) was cultured in DMEM-high glucose (Dulbecco’s Modified Eagle Medium) supplemented with 10% fetal bovine serum, 2 mM L-glutamine, 100 U/mL penicillin and 100 μg/mL streptomycin (Sigma-Aldrich; Merck KGaA) at 37 °C in a humidified atmosphere with 5% CO2. Cells were trypsinized, and the medium was renewed 2–3 times per week. The cytotoxicity of compounds was assessed by colorimetric CellTilter 96® Aqueous One Solution Cell Proliferation Assay (Promega, USA), containing a tetrazolium compound according to the manufacturer’s instructions. In brief, 7 × 10^3 HaCaT cells per well were plated on 96-well plates and incubated per night to adhere to the cultured dishes. After that time, different concentrations of the tested compounds ranging from 512 to 1 μg/mL were applied to the wells. Every compound was medium-soluble at 37 °C; thus, the non-treated cells were negative control. Serial dilutions of the tested compounds were always prepared before use. Cells were incubated with drugs for 24 h, and then, 20 μL of the CellTiter 96®AqueousOne Solution Reagent was added to each well containing treated cells in 100 µl of culture medium. After 4 h of incubation at 37 °C, the absorbance at 490 nm was recorded using a microplate reader (Epoch, BioTek Instruments, USA). The quantity of formazan product as measured by the amount of 490 nm absorbance is directly proportional to the number of living cells in culture. Benzalkonium chloride (Sigma-Aldrich, Germany) was used as reference compound. At least three independent experiments with two replicates were conducted for each concentration of a compound, and the IC50 values were calculated using GraphPad Prism 8 software.

C. glabrata ATCC 15126 = assay type: cell-based, Candida glabrata
Protocol: as §1, §2

[3] = system: A. baumannii ATCC BAA 1605; assay type: cell-based, Acinetobacter baumannii
Protocol: as §1, §2

E. faecium ATCC 700221 = assay type: cell-based, Enterococcus faecium
Protocol: as §1, §2

[4] = system: K. pneumoniae ATCC 700603; assay type: cell-based, Klebsiella pneumoniae
Protocol: as §1, §2

K. aerogenes ATCC 13048 = assay type: cell-based, Klebsiella aerogenes
Protocol: as §1, §2

S. aureus ATCC 33591 = assay type: cell-based, Staphylococcus aureus
Protocol: as §1, §2

Row | Molecule | MIC (P. aeruginosa ATCC 9027; ATCC 9027, 18 h) [µg/mL] | HC50 [1] [µg/mL] | MIC (C. glabrata ATCC 15126; ATCC 15126, 24 h) [µg/mL] | MIC ([3]; ATCC BAA 1605, 18 h) [µg/mL] | MIC (E. faecium ATCC 700221; ATCC 700221, 18 h) [µg/mL] | MIC ([4]; ATCC 700603, 18 h) [µg/mL] | MIC (K. aerogenes ATCC 13048; ATCC 13048, 18 h) [µg/mL] | MIC (S. aureus ATCC 33591; ATCC 33591, 18 h) [µg/mL] | MIC (P. aeruginosa ATCC 9027; P. aeruginosa ATCC 9027, 18 h, 37 °C) [µg/mL] | MIC (C. glabrata ATCC 15126; C. glabrata ATCC 15126, 24 h, 37 °C) [µg/mL] | MIC ([3]; A. baumannii ATCC BAA 1605, 18 h, 37 °C) [µg/mL] | MIC (E. faecium ATCC 700221; E. faecium ATCC 700221, 18 h, 37 °C) [µg/mL] | MIC ([4]; K. pneumoniae ATCC 700603, 18 h, 37 °C) [µg/mL] | MIC (K. aerogenes ATCC 13048; K. aerogenes ATCC 13048, 18 h, 37 °C) [µg/mL] | MIC (S. aureus ATCC 33591; S. aureus ATCC 33591, 18 h, 37 °C) [µg/mL] | IC50 [2] [µg/mL] | IC50 ([2]; HaCaT) [µg/mL]
1 | benzalkonium chloride [BAC, reference compound] |  |  |  |  |  |  |  |  | 32 | 4 | 16 | 4 | 16 | 16 | 4 |  | 11.70 ± 0.76
2 | CCCCCCCCCCCCCC(=O)N[C@@H](CCCCN)C(N)=O [Peptide 1M, C14-K-NH2] | >512 | 477.61 ± 28.02 | >512 | >512 | 16 (≈ 45 µM) | >512 | >512 | 16 (≈ 45 µM) |  |  |  |  |  |  |  | 4.33 ± 1.12 (≈ 12.2 µM) | 
3 | CCCCCCCCCCCCCC(=O)N[C@@H](CCCC[N+](C)(C)C)C(=O)N[C@@H](CCCC[N+](C)(C)C)C(N)=O [Peptide 2Mq, C14-K(Me3)^+K(Me3)^+-NH2] | >512 | >512 | 512 | >512 | 128 | >512 | >512 | 128 |  |  |  |  |  |  |  | 258.90 ± 35.07 | 

More lines, main results first:

Row | MIC (P. aeruginosa ATCC 9027; ATCC 9027, 18 h) [µg/mL] | HC50 [1] [µg/mL] | MIC (C. glabrata ATCC 15126; ATCC 15126, 24 h) [µg/mL] | MIC ([3]; ATCC BAA 1605, 18 h) [µg/mL] | MIC (E. faecium ATCC 700221; ATCC 700221, 18 h) [µg/mL] | MIC ([4]; ATCC 700603, 18 h) [µg/mL] | MIC (K. aerogenes ATCC 13048; ATCC 13048, 18 h) [µg/mL] | MIC (S. aureus ATCC 33591; ATCC 33591, 18 h) [µg/mL] | MIC (P. aeruginosa ATCC 9027; P. aeruginosa ATCC 9027, 18 h, 37 °C) [µg/mL] | MIC (C. glabrata ATCC 15126; C. glabrata ATCC 15126, 24 h, 37 °C) [µg/mL] | MIC ([3]; A. baumannii ATCC BAA 1605, 18 h, 37 °C) [µg/mL] | MIC (E. faecium ATCC 700221; E. faecium ATCC 700221, 18 h, 37 °C) [µg/mL] | MIC ([4]; K. pneumoniae ATCC 700603, 18 h, 37 °C) [µg/mL] | MIC (K. aerogenes ATCC 13048; K. aerogenes ATCC 13048, 18 h, 37 °C) [µg/mL] | MIC (S. aureus ATCC 33591; S. aureus ATCC 33591, 18 h, 37 °C) [µg/mL] | Molecule | IC50 [2] [µg/mL] | IC50 ([2]; HaCaT) [µg/mL]
4 | >512 | 22.42 ± 0.98 | 16 | 64 | 16 | 128 | 64 | 8 |  |  |  |  |  |  |  | CCCCCCCCCCCCCCCCCC(=O)N[C@@H](CCCC[N+](C)(C)C)C(=O)N[C@@H](CCCC[N+](C)(C)C)C(N)=O [Peptide 2Sq, C18-K(Me3)^+K(Me3)^+-NH2] | 78.57 ± 5.49 | 
5 | 32 (≈ 41.7 µM) | >512 | 64 (≈ 83.3 µM) | 64 (≈ 83.3 µM) | 4 (≈ 5.21 µM) | 32 (≈ 41.7 µM) | 8 (≈ 10.4 µM) |  |  |  |  |  |  |  |  | CCCCCCCCCCCCCCCC(=O)N[C@@H](CCCCN)C(=O)N[C@@H](CCCCN)C(=O)N[C@@H](CCCCN)C(=O)N[C@@H](CCCCN)C(N)=O [Peptide 4P, C16-KKKK-NH2] (Palmitoyl-KKKK-NH2) | 126.80 ± 27.26 (≈ 165 µM) | 
6 | 8 (≈ 10 µM) | 48.44 ± 4.12 | 16 (≈ 20.1 µM) | 16 (≈ 20.1 µM) | 4 (≈ 5.02 µM) | 8 (≈ 10 µM) | 4 (≈ 5.02 µM) |  |  |  |  |  |  |  |  | CCCCCCCCCCCCCCCCCC(=O)N[C@@H](CCCCN)C(=O)N[C@@H](CCCCN)C(=O)N[C@@H](CCCCN)C(=O)N[C@@H](CCCCN)C(N)=O [Peptide 4S, C18-KKKK-NH2] (Stearoyl-KKKK-NH2) | 155.34 ± 11.20 (≈ 195 µM) | 

— article PMC10687119, “Quaternary Ammonium Salts of Cationic Lipopeptides with Lysine Residues — Synthesis, Antimicrobial, Hemolytic and Cytotoxic Activities” (Probiotics and Antimicrobial Proteins, 2023)
